{"source": "patent US9006205B2", "about": "“Antisense oligonucleotides against neutral sphingomyelinase and neutral sphingomyelinase inhibitor GW4869 for degenerative neurological disorders” (Rush University Medical Center, priority 2011, dated 2015)", "key": {"primary human neurons [1]": {"tested_on": "primary human neurons", "experiment": "MTT metabolism of neurons in astrocyte-neuron trans-well", "format": "cell-based", "protocol": "(§1) Primary human astrocytes were grown to confluency on inserts. After 24 h of stimulation by the combination of Aβ (1 μM) and IL-Iβ (10 ng/ml), inserts were washed thrice with HBSS and then placed onto the wells containing primary human neurons. Therefore, in this trans-well model, although neurons and astrocytes face each other, they are separable and the effect of soluble factors released from activated astrocytes on neurons can be studied allowing analysis of neuronal and glial populations separately.\nMitochondrial activity was measured with the 3-(4,5-dimethylthiazol-2-yl)-2,5-diphenyltetrazolium bromide (MTT) assay (Sigma). The cells were grown on 24-well culture plates with 500 μl of medium and treated with various reagents according to the experimental design. At the end of the treatment period, 300 μl of culture medium were removed from each well, and 20 μl of MTT solution (5 mg/ml) were added and incubated for 1 h.\n(§2) Primary human neurons were incubated with antisense (ASO) and scrambled oligonucleotides (ScO) against N-SMase (A) and A-SMase (FIG. 2B). After 48 h, neurons were analyzed for protein expression of N-SMase and A-SMase. In FIG. 2C, primary human astrocytes seeded in inserts were stimulated by the combination of Aβ and IL-1β as described above. […] After 6 h of treatment with activated astrocytes, apoptotic events in neurons were detected by TUNEL. In FIG. 2D, TUNEL-positive cells were counted manually in four different images of each of three coverslips by three individuals blinded to the experiment. […] Values obtained from the control group served as 100%, and data obtained in other groups were calculated as percent of control accordingly. […]\n(§3) In FIGS. 3A-3E, primary human astrocytes seeded in inserts were stimulated by the combination of Aβ and IL-Iβ as described above. […] In FIG. 3A, after 1 h, activity of N-SMase was measured in total cell extracts of neurons as described above. […] Values obtained from the control group served as 100%, and data obtained in other groups were calculated as percent of control accordingly."}, "primary human neurons [2]": {"tested_on": "primary human neurons", "experiment": "LDH release from neurons in astrocyte-neuron trans-well", "format": "cell-based", "protocol": "as §1\nThe activity of lactate dehydrogenase (LDH) was measured using the direct spectrophotometric assay using an assay kit from Sigma.\nas §2, with “experiment. In FIG. 2E, after 18 h of stimulation, cell viability was examined by the metabolism of MTT and the release of LDH.” for “experiment.”\nas §3, with “accordingly. […] Primary human neurons were treated with 25 μM DETA-NONOate (a NO donor) and at different time points of treatment, activities of N-SMase (FIG. 3D) and A-SMase (FIG. 3E) were monitored. ^ap<0.001 vs control (0 h).” for “accordingly.”"}, "A-SMase": {"tested_on": "A-SMase", "experiment": "A-SMase activity in vivo in the cortex after microinjection", "set-up": "species or system C57/BL6 mice", "details": "pre-microinjection of 1 μg oligonucleotide 24 h before 1 μg fibrillar Aβ1-42", "protocol": "(§4) Activities of SMase(s) were assayed as described by. Briefly, after treatment, the cells were washed with PBS, harvested in PBS, divided into two halves, and centrifuged. The fraction for N-SMase was resuspended in buffer A (100 mM Tris-HCl, pH 7.4, 0.1% Triton X-100, 1 mM EDTA, and protease inhibitors), and the cell suspension was sonicated and centrifuged at 500×g at 4° C. for 5 min. The supernatant was used as the enzyme source for N-SMase. The reaction mixture contained enzyme preparation in buffer A containing 5 nmol of [^14C] sphingomyelin, 5 nmol of phosphatidylserine, 5 mM dithiothreitol, and 5 mM MgC¾ in a final volume of 100 μl. Similarly, the fraction for A-SMase was resuspended in buffer B (100 mM sodium acetate, pH 5.0, 0.1% Triton X-100, and protease inhibitors). The cell suspension was sonicated and centrifuged. The supernatant was used as the source of A-SMase. The activity of A-SMase was measured in a 100-μl reaction mixture consisting of the enzyme preparation in buffer B and 5 nmol of [^14C] sphingomyelin. The enzyme reaction was initiated by the addition of 50 μl of substrate and stopped by the addition of 1.5 ml of chloroform:methanol (2:1, v/v) and 0.2 ml of water. After vortexing and phase separation, the aqueous phase was removed for counting.\n(§5) Control mice received saline injection. At indicated time points, cortex was dissected out and divided into two halves—one half for measuring activities of N-SMase (FIG. 7B) and A-SMase (FIG. 7C) and the other for assaying ceramide (FIG. 7D). Control (saline—6 h) group served as 100%, and data from other groups were expressed as percentage of control. Results are mean+SD of five different mice (n=5). ^ap<0.05 vs saline—6 h."}, "iNOS, GFAP and CD11b": {"tested_on": "iNOS, GFAP and CD11b", "experiment": "Immunofluorescence of iNOS, GFAP and CD11b in the cortex of Aβ-microinjected mice", "format": "in vivo, C57/BL6 mice", "details": "1 μg oligonucleotide 24 h before Aβ; at both 6 h and 24 h of microinjection", "protocol": "[…], mice were perfused with 4% paraformaldehyde and their brains were processed for immunohistochemical studies. For double labeling of GFAP with iNOS, sections (6 μm) were incubated with polyclonal anti-GFAP (GFAP: 1000 dilution; Calbiochem) and anti-iNOS (iNOS: 1000 dilution; Calbiochem) for 24 h at 4° C. After three washes in PBST (15 min each), slides were further incubated with Cy5 and Cy2 (Jackson ImmunoResearch Laboratories, Inc.) secondary antibodies for 2 h at room temperature. For negative controls, a set of tissue sections was incubated under similar conditions without the primary antibodies. The samples were mounted and observed under a Bio-Rad MRC1024ES confocal laser scanning microscope.\nAfter 6 h of Aβ microinjection, mice were perfused and double immunofluorescence for GFAP (green) and iNOS (red) (FIG. 8A) and CD 11b (green) and iNOS (red) (FIG. 8B) was performed."}, "[3]": {"tested_on": "neurons (NeuN-positive cells)", "experiment": "TUNEL/NeuN neuronal apoptosis in vivo in the cortex of Aβ-microinjected mice", "details": "1 μg oligonucleotide 24 h before Aβ; 24 h after final microinjection"}, "N-SMase [4]": {"tested_on": "N-SMase", "experiment": "N-SMase activity in vivo in the cortex after microinjection", "set-up": "species or system C57/BL6 mice", "details": "pre-microinjection of 1 μg oligonucleotide 24 h before 1 μg fibrillar Aβ1-42", "protocol": "as §4, §5"}, "N-SMase [5]": {"biological_target": "T1, N-SMase (Homo sapiens, UniProt Q9NY59)", "T1 construct": "endogenous in cells; host or cells: primary human neurons", "T1 sequence (Q9NY59 1-655)": "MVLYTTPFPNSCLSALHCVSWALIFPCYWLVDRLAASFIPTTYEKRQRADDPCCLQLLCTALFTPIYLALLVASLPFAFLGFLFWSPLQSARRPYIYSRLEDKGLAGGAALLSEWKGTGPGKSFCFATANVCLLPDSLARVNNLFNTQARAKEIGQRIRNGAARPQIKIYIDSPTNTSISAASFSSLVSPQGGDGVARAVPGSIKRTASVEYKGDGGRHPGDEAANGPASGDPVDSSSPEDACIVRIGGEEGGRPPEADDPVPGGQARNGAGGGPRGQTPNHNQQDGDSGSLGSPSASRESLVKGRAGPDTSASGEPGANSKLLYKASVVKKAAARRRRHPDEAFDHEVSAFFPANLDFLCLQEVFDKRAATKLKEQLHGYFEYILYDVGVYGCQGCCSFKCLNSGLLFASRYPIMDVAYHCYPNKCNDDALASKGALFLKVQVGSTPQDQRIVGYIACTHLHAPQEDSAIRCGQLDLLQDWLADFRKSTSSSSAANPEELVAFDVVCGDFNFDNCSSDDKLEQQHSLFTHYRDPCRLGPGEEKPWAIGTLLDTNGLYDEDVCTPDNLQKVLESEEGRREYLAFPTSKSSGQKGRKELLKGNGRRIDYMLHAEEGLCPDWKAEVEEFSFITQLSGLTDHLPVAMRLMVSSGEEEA", "experiment": "Assay of N-SMase activity in primary human neurons", "format": "cell-based", "protocol": "as §4\nIn FIGS. 3A-3E, primary human astrocytes seeded in inserts were stimulated by the combination of Aβ and IL-Iβ as described above. After 24 h, media were removed and inserts were washed and placed on neurons that were pretreated with PTIO for 30 min. In FIG. 3A, after 1 h, activity of N-SMase was measured in total cell extracts of neurons as described above. After 18 h, neuronal viability was examined by the metabolism of MTT (FIG. 3B) and the release of LDH (FIG. 3C). Values obtained from the control group served as 100%, and data obtained in other groups were calculated as percent of control accordingly. Results are mean+S.D. of three different experiments. ^ap<0.001 vs control; ^bp<0.001 vs activated astrocytes. Primary human neurons were treated with 25 μM DETA-NONOate (a NO donor) and at different time points of treatment, activities of N-SMase (FIG. 3D) and A-SMase (FIG. 3E) were monitored. ^ap<0.001 vs control (0 h)."}, "primary human astrocytes": {"tested_on": "primary human astrocytes", "experiment": "GFAP and iNOS double-labeling of primary human astrocytes stimulated with Aβ peptides", "format": "cell-based", "details": "peptide stimulation for 24 h", "protocol": "In FIG. 5A, primary astrocytes were stimulated with fibrillar Aβ1-42, oligomeric Aβ1-42 and reverse peptide Aβ42-1 for 24 h followed by double-labeling of GFAP and iNOS. In FIG. 5B, primary human astrocytes seeded in inserts were stimulated with a combination of I μM of oligomeric Aβ1-42 and 10 ng/ml of IL-Iβ in serum free media. […] After 6 h, neuronal apoptosis was monitored by TUNEL. In FIG. 5C, TUNEL-positive cells were counted manually in four different images of each of three coverslips by three individuals blinded to the experiment. Values obtained from the control group (1) served as 100%, and data obtained from other three groups i.e. the oligomeric Aβ-activated astrocytes (OAA) group (2), the ASO-OAA group (3), and the ScO-OAA group (4) was calculated as percent of control accordingly. Results are mean+S.D. of three different experiments. ^ap<0.001 vs control; ^bp<0.001 vs OAA."}, "[6]": {"details": "neurons pretreated with oligonucleotide, 18 h of stimulation"}, "[7]": {"details": "neurons pretreated with PTIO for 30 min, after 18 h"}}}
{"molecule": "5′- CACGCGTCCGACGCCGCACGA -3′ (DNA, all phosphorothioate, methylation of C not given here) [ScO against N-SMase, ID; NO.: 13]", "values": [{"measurement": "activated astroglia-mediated loss of MTT metabolism", "setting": "primary human neurons [1]; [6]", "result": "showed no effect"}, {"measurement": "LDH release from neurons", "setting": "primary human neurons [2]; [6]", "result": "showed no effect"}]}
{"molecule": "5′-CACGCGTCCGACGCCGCACGA-3′ (DNA CACGCGTCCGACGCCGCACGA; chemistry not given here) [mN-SMase ScO]", "values": [{"measurement": "activity of A-SMase in fibrillar Aβ-microinjected cortex", "setting": "A-SMase", "result": "did not influence"}, {"measurement": "expression of iNOS, GFAP and CD11b in vivo in the cortex of Aβ-microinjected mice", "setting": "iNOS, GFAP and CD11b", "result": "had no effect"}, {"measurement": "Aβ-induced apoptotic death in vivo in the cortex (TUNEL/NeuN)", "setting": "[3]", "result": "did not ameliorate"}]}
{"molecule": "5′-CAGCGAGCCGGTCCACCAGCC-3′ (antisense CAGCGAGCCGGTCCACCAGCC; chemistry not given here) [mN-SMase ASO]", "values": [{"measurement": "Aβ1-42-induced activation of N-SMase in vivo in the cortex", "setting": "N-SMase [4]", "result": "capable of suppressing"}, {"measurement": "activity of A-SMase in fibrillar Aβ-microinjected cortex", "setting": "A-SMase", "result": "did not influence"}, {"measurement": "expression of iNOS, GFAP and CD11b in vivo in the cortex of Aβ-microinjected mice", "setting": "iNOS, GFAP and CD11b", "result": "dramatically reduced"}, {"measurement": "Aβ-induced apoptotic death in vivo in the cortex (TUNEL/NeuN)", "setting": "[3]", "result": "blocked"}]}
{"molecule": "NCCN(CCN)/[N+]([O-])=N/O", "note": "[DETA-NONOate]", "values": [{"measurement": "activation of N-SMase by NO donor alone", "setting": "N-SMase [5]; primary human neurons, 25 μM, different time points", "result": "markedly induced"}]}
{"molecule": "CC1(C)N([O])C(c2ccccc2)=[N+]([O-])C1(C)C", "note": "[PTIO]", "values": [{"measurement": "ability of activated astrocytes to decrease MTT metabolism", "setting": "primary human neurons [1]; [7]", "result": "reduced the ability"}, {"measurement": "ability of activated astrocytes to increase the release of LDH", "setting": "primary human neurons [2]; [7]", "result": "reduced the ability"}, {"measurement": "ability of activated astrocytes to induce the activation of N-SMase", "setting": "N-SMase [5]; neurons pretreated with PTIO for 30 min, measured after 1 h", "result": "reduced the ability"}]}
{"molecule": "oligomeric Aβ: Aβ1-42 prepared after incubation at 37° C. for 2 days", "values": [{"measurement": "astroglial iNOS protein and GFAP", "setting": "primary human astrocytes", "result": "also induced iNOS and upregulated GFAP"}]}
